According to the NIST ThermoML archive (doi:10.1021/je060271a):

Conditions: 343.15 K, Liquid, Vibrating tube method

CCCCC(=O)OCC(COC(=O)CCCC)(COC(=O)CCCC)COC(=O)CCCC [pentaerythritol tetrapentanoate]
Conditions	mass density [kg/m3]
12882 kPa	988.2
12909 kPa	988.3
12937 kPa	988.2
12964 kPa	988.3
12996 kPa	988.3
13022 kPa	988.5
13049 kPa	988.3
13082 kPa	988.4
13109 kPa	988.3
13137 kPa	988.5
13164 kPa	988.4
13198 kPa	988.5
13226 kPa	988.4
13254 kPa	988.4
13287 kPa	988.5
13318 kPa	988.6
13346 kPa	988.6
13374 kPa	988.6
13408 kPa	988.7
13437 kPa	988.6
13466 kPa	988.7
13495 kPa	988.7
13530 kPa	988.7
13559 kPa	988.7
13594 kPa	988.8
13624 kPa	988.8
13653 kPa	988.9
13683 kPa	988.8
13719 kPa	988.9
13750 kPa	989
13780 kPa	989
13816 kPa	989
13847 kPa	989
13877 kPa	989.1
13914 kPa	988.9
13945 kPa	989.2
13976 kPa	989
14014 kPa	989.2
14045 kPa	989.2
14077 kPa	989.2
14110 kPa	989.1
14149 kPa	989.1
14181 kPa	989.1
14213 kPa	989.3
14252 kPa	989.2
14284 kPa	989.4
14318 kPa	989.2
14350 kPa	989.3
14390 kPa	989.6
14423 kPa	989.4
14457 kPa	989.4
14497 kPa	989.5
14531 kPa	989.5
14566 kPa	989.5
14607 kPa	989.5
14641 kPa	989.7
14676 kPa	989.6
14717 kPa	989.7
14752 kPa	989.7
14787 kPa	989.7
14829 kPa	989.7
14864 kPa	989.6
14900 kPa	989.8
14943 kPa	989.7
14979 kPa	989.8
15016 kPa	989.9
15053 kPa	989.8
15097 kPa	989.9
15134 kPa	989.8
15171 kPa	989.9
15214 kPa	989.9
15252 kPa	990.1
15289 kPa	989.9
15334 kPa	990
15372 kPa	990
15411 kPa	990.2
15458 kPa	990.1
15497 kPa	990.1
15537 kPa	990.3
15578 kPa	990.2
15628 kPa	990.3
15668 kPa	990.3
15704 kPa	990.5
15742 kPa	990.3
15774 kPa	990.4
15806 kPa	990.4
15845 kPa	990.4
15877 kPa	990.6
15910 kPa	990.4
15950 kPa	990.4
15982 kPa	990.5
16016 kPa	990.5
16052 kPa	990.6
16091 kPa	990.6
16125 kPa	990.7
16159 kPa	990.6
16199 kPa	990.8
16233 kPa	990.7
16268 kPa	990.8
16302 kPa	990.8
16344 kPa	990.7
16378 kPa	990.9
16413 kPa	990.8
16456 kPa	990.9
16493 kPa	991
16530 kPa	991
16566 kPa	991
16602 kPa	991
16644 kPa	990.9
16680 kPa	991
16724 kPa	991.1
16760 kPa	991.1
16796 kPa	991.1
16841 kPa	991.2
16878 kPa	991.1
16915 kPa	991.1
16959 kPa	991.1
16997 kPa	991.2
17035 kPa	991.2
17081 kPa	991.3
17119 kPa	991.3
17158 kPa	991.3
17204 kPa	991.4
17243 kPa	991.4
17282 kPa	991.4
17330 kPa	991.6
17371 kPa	991.5
17412 kPa	991.6
17462 kPa	991.6
17500 kPa	991.5
17533 kPa	991.6
17569 kPa	991.6
17600 kPa	991.6
17630 kPa	991.5
17666 kPa	991.6
17697 kPa	991.7
17728 kPa	991.8
17765 kPa	991.9
17796 kPa	991.9
17827 kPa	991.7
17864 kPa	991.9
17896 kPa	991.9
17928 kPa	991.9
17966 kPa	991.9
17998 kPa	991.8
18030 kPa	992
18068 kPa	992
18100 kPa	992.1
18132 kPa	992
18171 kPa	991.9
18204 kPa	992.2
18236 kPa	992
18276 kPa	992.1
18309 kPa	992.1
18342 kPa	992.1
18382 kPa	992.2
18416 kPa	992.2
18450 kPa	992.1
18490 kPa	992.3
18524 kPa	992.4
18558 kPa	992.3
18600 kPa	992.4
18634 kPa	992.4
18668 kPa	992.5
18709 kPa	992.5
18744 kPa	992.5
18780 kPa	992.5
18821 kPa	992.4
18857 kPa	992.7
18892 kPa	992.5
18935 kPa	992.7
18971 kPa	992.6
19007 kPa	992.6
19052 kPa	992.7
19088 kPa	992.6
19126 kPa	992.7
19172 kPa	992.8
19211 kPa	992.9
19248 kPa	992.8
19284 kPa	992.9
19312 kPa	992.8
19340 kPa	992.9
19368 kPa	992.9
19401 kPa	992.9
19429 kPa	992.9
19458 kPa	993
19491 kPa	992.9
19520 kPa	993.1
19549 kPa	993.1
19579 kPa	993
19613 kPa	993
19638 kPa	993.1
19666 kPa	993.2
19689 kPa	993.1
19713 kPa	993
19737 kPa	993.1
19761 kPa	993.2
19789 kPa	993.2
19813 kPa	993.2
19836 kPa	993.2
19864 kPa	993.2
19888 kPa	993.3
19912 kPa	993.3
19941 kPa	993.3
19964 kPa	993.3
19988 kPa	993.4
20017 kPa	993.3
20042 kPa	993.4
20066 kPa	993.3
20095 kPa	993.4
20119 kPa	993.6
20143 kPa	993.5
20173 kPa	993.5
20197 kPa	993.5
20222 kPa	993.5
20251 kPa	993.5
20276 kPa	993.5
20301 kPa	993.6
20330 kPa	993.7
20355 kPa	993.4
20381 kPa	993.7
20410 kPa	993.7
20436 kPa	993.7
20461 kPa	993.5
20487 kPa	993.7
20517 kPa	993.6
20542 kPa	993.6
20568 kPa	993.7
20598 kPa	993.7
20629 kPa	993.8
20660 kPa	993.8
20687 kPa	993.8
20713 kPa	993.9
20740 kPa	993.9
20770 kPa	993.8
20797 kPa	993.9
20823 kPa	993.8
20854 kPa	993.9
20880 kPa	994
20907 kPa	993.9
20939 kPa	994
20965 kPa	994
20992 kPa	994.1
21020 kPa	993.9
21052 kPa	994.1
21079 kPa	994.1
21106 kPa	994.1
21254 kPa	994.2
21281 kPa	994.3
21309 kPa	994.2
21342 kPa	994.3
21370 kPa	994.3
22531 kPa	995.1
22626 kPa	995.2
22664 kPa	995
22696 kPa	995.3
23251 kPa	995.5
23324 kPa	995.7
23466 kPa	995.7
23985 kPa	996.2
24021 kPa	996
24064 kPa	996
24136 kPa	996.2
24180 kPa	996.1
24216 kPa	996.2
24253 kPa	996.2
24297 kPa	996.3
24334 kPa	996.4
24371 kPa	996.3
24415 kPa	996.2
24452 kPa	996.3
24490 kPa	996.5
24529 kPa	996.4
24574 kPa	996.5
24612 kPa	996.4
24650 kPa	996.5
24696 kPa	996.4
24734 kPa	996.4
24772 kPa	996.5
24856 kPa	996.5
24895 kPa	996.7
24934 kPa	996.7
24981 kPa	996.8
25274 kPa	996.9
25314 kPa	997
25354 kPa	996.9
25839 kPa	997.2
25895 kPa	997.4
26210 kPa	997.4
26261 kPa	997.5
26310 kPa	997.5
26350 kPa	997.5
26385 kPa	997.6
26426 kPa	997.6
26460 kPa	997.6
26502 kPa	997.8
26536 kPa	997.7
26571 kPa	997.8
26607 kPa	997.7
26649 kPa	997.7
26684 kPa	997.9
26720 kPa	997.9
26756 kPa	997.9
26800 kPa	997.9
26835 kPa	998
26871 kPa	998
26914 kPa	998
26950 kPa	998
26986 kPa	998
27029 kPa	998.1
27065 kPa	998.2
27101 kPa	998
27145 kPa	998.2
27182 kPa	998.1
27219 kPa	998.2
27256 kPa	998.2
27301 kPa	998.2
27339 kPa	998.2
27376 kPa	998.2
27421 kPa	998.2
27458 kPa	998.2
